Experimental data reported in article PMC6348443 (Journal of Medicinal Chemistry, 2018).
Counter-ions that a name gives are not always drawn.

What was measured:
MOR [1] = biological target: T1, MOR (Rattus norvegicus, UniProt P33535); test: competition radioligand binding, rat brain membranes, [3H]DAMGO; conditions: for Ki: rat brain membranes, read-out: opioid receptor binding Ki MOR; for increase in MOR binding affinity vs comparator: rat brain, 17b vs 4b, 16a/b vs 7a/b, 22a/b vs 7a, 7b and 9b, 14a vs 14b; for Ki ratio MOR/DOR/KOR: from Ki in rat (MOR, DOR) and guinea-pig (KOR) brain membranes
T1 construct: Membranes were prepared from Sprague-Dawley rat brains or guinea-pig brains according to the described procedures; tissue Labortierkunde und Laborgenetik, Medizinische Universität Wien; host or cells: Sprague-Dawley rat brain without cerebella
Method: (§1) Competition binding assays using rat brain (MOR and DOR) and guinea-pig brain (KOR) membranes (Table 1) were performed according to published procedures.[44],[49] […] In addition, we have assessed binding at the human opioid receptors stably transfected in Chinese hamster ovary (CHO) cells (Table S1).
(§2) Membranes were prepared from Sprague-Dawley rat brains or guinea-pig brains according to the described procedures.[44],[45] Brains without cerebella were homogenized on ice in 5 vol/wt of ice-cold 50 mM Tris-HCl buffer (pH 7.4) and diluted in 30 vol/wt of the same buffer. After centrifugation at 40 000g for 20 min at 4 °C, the pellets were resuspended in 30 vol/wt of 50 mM Tris-HCl buffer (pH 7.4) and incubated at 37 °C for 30 min. The centrifugation step described above was repeated, and the final pellets were resuspended in 5 vol/wt of 50 mM Tris-HCl buffer (pH 7.4) containing 0.32 M sucrose and stored at −80 °C until use.
(§3) Rat brain membranes were incubated with either [^3H]DAMGO (1 nM, 45 min, 35 °C) or [^3H][Ile^5,6]deltorphin II (0.5 nM, 45 min, 35 °C) for labeling MOR or DOR receptors, respectively. Guinea-pig brain membranes were incubated with [^3H]U69,593 (1 nM, 30 min, 30 °C) for labeling KOR. Binding assays with CHO cell membranes were conducted at 25 °C for 60 min using [^3H]DAMGO (1 nM) or [^3H]diprenorphine (0.2 nM) for labeling MOR or DOR, respectively. Nonspecific binding was determined using 10 μM naloxone (rodent brain) or 1–10 μM of the unlabeled counterpart of each radioligand (CHO cells). Reactions were terminated by rapid filtration through Whatman glass fiber GF/C filters. Filters were washed three times with 5 mL of ice-cold 50 mM Tris-HCl buffer (pH 7.4) using a Brandel M24R cell harvester (Gaithersburg, MD). Radioactivity retained on the filters was counted by liquid scintillation counting using a Beckman Coulter LS6500 (Beckman Coulter Inc., Fullerton, CA). All binding experiments were performed in duplicate and repeated at least three times.
(§4) Data were analyzed and graphically processed using the GraphPad Prism 5.0 Software (GraphPad Prism Software Inc., San Diego, CA). For in vitro assays, inhibition constant (Ki in nM), potency (EC50 in nM), and efficacy (% stimulation) values were determined from concentration–response curves by nonlinear regression analysis. The Ki values were determined by the method of Cheng and Prusoff.[66] In the [^35S]GTPγS binding assays, efficacy was determined relative to the reference full opioid agonists, DAMGO (MOR), DPDPE (DOR), and U69,593 (KOR). In vitro data are presented as mean ± SEM of three to four independent experiments each performed in duplicate. […] Each experimental group included six to seven mice. Data were statistically evaluated using one-way ANOVA with Tukey’s post hoc test for multiple comparisons with significance set at P < 0.05.

DOR [2] = biological target: T2, DOR (Homo sapiens, UniProt P41143); test: [35S]GTPγS binding assay, CHO-hDOR membranes; format: biochemical; conditions: for EC50: [35S]GTPγS, CHO human DOR membranes; for Emax: relative to reference full agonist DPDPE, read-out: DOR % stim.; for increased agonist potency at DOR vs MOR: [35S]GTPγS EC50
T2 construct: host or cells: CHO (CHO-hDOR)
Method: (§5) Efficacies are presented as percentage stimulation relative to the standard full agonists, [D-Ala^2,N-Me-Phe4,Gly-ol^5]enkephalin (DAMGO for MOR),[53] [D-Pen^2,D-Pen^5]enkephalin (DPDPE for DOR)[54] and N-methyl-2-phenyl-N-[(5R,7S,8S)-7-(pyrrolidin-1-yl)-1-oxaspiro[4.5]dec-8-yl]acetamide (U69,593 for KOR).[55]
(§6) Membranes from CHO cells expressing human opioid receptors were prepared in 50 mM Tris-HCl buffer (pH 7.7) according to a previously described procedure.[64] Cells expressing human opioid receptors grown at confluence were removed from the culture plates by scraping, homogenized in 50 mM Tris buffer (pH 7.7), using a Polytron homogenizer, then centrifuged once and washed by an additional centrifugation at 27 000g for 15 min, at 4 °C. The final pellet was resuspended in Tris buffer and stored at −80 °C until use. Protein content of brain and cell membrane preparation homogenates was determined by the method of Bradford using bovine serum albumin as the standard.[65]
(§7) Binding of [^35S]GTPγS to membranes from CHO cells stably expressing the human opioid receptors was conducted according to the published procedures.[49],[64] Cell membranes (5–10 μg) in 20 mM HEPES, 10 mM MgCl2, and 100 mM NaCl (pH 7.4) were incubated with 0.05 nM [^35S]GTPγS, 10 μM GDP, and various concentrations of test compound in a final volume of 1 mL, for 60 min at 25 °C. Nonspecific binding was determined using 10 μM GTPγS, and the basal binding was determined in the absence of test ligand. Samples are filtered over glass Whatman glass GF/B fiber filters and counted as described for binding assays. All experiments were performed in duplicate and repeated at least three times.
as §4

KOR [3] = biological target: T3, KOR (Homo sapiens, UniProt P41145); test: [35S]GTPγS binding assay, CHO-hKOR membranes; format: biochemical; conditions: for EC50: [35S]GTPγS, CHO human KOR membranes, read-out: KOR EC50; for functional profile at KOR (full/partial agonist): partial agonist <85% of the response to U69,593; for Emax: relative to reference full agonist U69,593, read-out: KOR % stim.
T3 construct: host or cells: CHO (CHO-hKOR)
Method: as §5, §6, §7, §4

DOR [4] = biological target: T4, DOR (Rattus norvegicus, UniProt P33533); test: competition radioligand binding, rat brain membranes, [3H][Ile5,6]deltorphin II; conditions: rat brain membranes; read-out: opioid receptor binding Ki DOR
T4 construct: Membranes were prepared from Sprague-Dawley rat brains or guinea-pig brains according to the described procedures; tissue Labortierkunde und Laborgenetik, Medizinische Universität Wien; host or cells: Sprague-Dawley rat brain without cerebella
Method: as §1, §2, §3, §4

MOR [5] = biological target: T5, MOR (Homo sapiens, UniProt P35372); test: [35S]GTPγS binding assay, CHO-hMOR membranes; format: biochemical; conditions: for EC50: [35S]GTPγS, CHO human MOR membranes, read-out: MOR EC50; for functional profile at MOR (full/partial agonist): full agonist ≥85% of the response to DAMGO; for Emax: read-out: MOR % stim.
T5 construct: host or cells: CHO (CHO-hMOR)
Method: as §5, §6, §7, §4

KOR [6] = biological target: T6, KOR (Cavia porcellus, UniProt P41144); test: competition radioligand binding, guinea-pig brain membranes, [3H]U69,593; conditions: guinea-pig brain membranes; read-out: opioid receptor binding Ki KOR
T6 construct: Membranes were prepared from Sprague-Dawley rat brains or guinea-pig brains according to the described procedures; tissue Labortierkunde und Laborgenetik, Medizinische Universität Wien; host or cells: guinea-pig brain without cerebella
Method: as §1, §2, §3, §4

male CD1 mice = test: acetic acid-induced writhing assay after sc administration; format: in vivo, mouse; conditions: for ED50: Mus musculus, 0.5 h, read-out: ED50 (95% CI), mice, sc, inhibition of writhing 30 min after drug administration
Method: Solutions of test compounds were prepared in sterile physiological 0.9% saline and further diluted to working doses in saline solution. Test compounds or saline (control) were administered by sc route in a volume of 10 μL/1 g of body weight. All doses are expressed in terms of salts. Separate groups of mice received the respective dose of compound, and individual mice were only used once for behavioral testing.
Writhing was induced in male CD1 mice by ip injection of a 0.6% acetic acid aqueous solution as described previously.[48],[62] Groups of mice were administered sc different doses of test compound or saline (control), and 5 min prior to testing (25 min after drug or saline), each animal received an ip injection of acetic acid solution. Each mouse was placed in individual transparent Plexiglas chambers, and the number of writhes was counted during a 10 min observation period. […] For the antagonism study, naloxone methiodide was sc co-administered with the respective opioid agonist, and writhing was assessed as described above.
as §4

[7] = relative to reference full agonist DAMGO

Structure (SMILES) | Ki (MOR [1]) [nM] | increase in MOR binding affinity vs comparator (MOR [1]) | EC50 (DOR [2]) [nM] | Emax (DOR [2]) [%] | EC50 (KOR [3]) [nM] | functional profile at KOR (full/partial agonist) (KOR [3]) | Emax (KOR [3]) [%] | Ki (DOR [4]) [nM] | EC50 (MOR [5]) [nM] | functional profile at MOR (full/partial agonist) (MOR [5]) | MOR % stim. (MOR [5]; [7]) [%] | Emax (MOR [5]; [7]) [%] | Ki (KOR [6]) [nM] | ED50 (male CD1 mice) [mg/kg] | ED50 (95% CI) (male CD1 mice; mice, inhibition of writhing 30 min after drug administration) | increased antinociceptive potency vs comparator (male CD1 mice; writhing assay, 3a vs 3b, 4a vs 4b, 16b vs 7a (so in the source)) [times] | increased agonist potency at DOR vs MOR (DOR [2]) | Ki ratio MOR/DOR/KOR (MOR [1])
CO[C@@]12CC[C@@H](N[C@@H](C(=O)O)C(C)C)[C@@H]3Oc4c(O)ccc5c4[C@@]31CCN(C)[C@@H]2C5 [Compound 16b] | 1.02 ± 0.07 | 2–3 times | 1.3 ± 0.64 | 99 ± 0.2 | 1280 ± 283 | full agonists | 98 ± 16 | 1.68 ± 0.16 | 2.38 ± 0.77 | full agonist | 101 ± 5 | 101 | 159 ± 17 | < 0.02 | 14.0 (5.90–33.3) μg/kg | 8 | – | –
CO[C@@]12CC[C@@H](N[C@H](C(=O)O)C(C)C)[C@@H]3Oc4c(O)ccc5c4[C@@]31CCN(C)[C@@H]2C5 [Compound 7b, (2S)-2-[(4,5α-Epoxy-3-hydroxy-14β-methoxy-17-methylmorphinan-6β-yl)amino]-3-methylbutyric Acid Dihydrochloride] | 3.04 ± 0.12 | – | 5.73 ± 2.48 | 96 ± 9 | 1120 ± 411 | partial agonist | 68 ± 10 | 3.52 ± 0.04 | 11.7 ± 5.7 | partial agonist | – | ~80 | 305 ± 39 | 0.117 | – | – | 2–4 times | –
CO[C@@]12CC[C@@H](N[C@@H](Cc3ccc(O)cc3)C(=O)O)[C@@H]3Oc4c(O)ccc5c4[C@@]31CCN(C)[C@@H]2C5.Cl.Cl [Compound 9b, (2S)-2-[(4,5α-Epoxy-3-hydroxy-14β-methoxy-17-methylmorphinan-6β-yl)amino]-3-(4-hydroxyphenyl)propionic Acid Dihydrochloride] | 3.2 ± 0.55 | – | 6.23 ± 1.03 | 95 ± 0.8 | 774 ± 57 | – | 60 ± 3 | 3.89 ± 0.64 | 24.7 ± 9.8 | – | – | 93 ± 7 | 186 ± 33 | – | – | – | 2–4 times | –
CO[C@@]12CC[C@@H](NCCC(=O)O)[C@@H]3Oc4c(O)ccc5c4[C@@]31CCN(C)[C@@H]2C5 [Compound 20b, 3-[(4,5α-Epoxy-3-hydroxy-14β-methoxy-17-methylmorphinan-6β-yl)amino]propionic Acid Dihydrochloride] | 1.04 ± 0.04 | – | 20.1 ± 10.7 | 99 ± 3 | 622 ± 311 | – | 67 ± 12 | 13.9 ± 1.7 | 5.74 ± 0.47 | – | – | ~80 | 71.4 ± 4.6 | – | – | – | – | 1/13/69
CO[C@@]12CC[C@H](N[C@@H](C(=O)O)C(C)C)[C@@H]3Oc4c(O)ccc5c4[C@@]31CCN(C)[C@@H]2C5 [Compound 16a] | 1.7 ± 0.09 | 2–3 times | 1.12 ± 0.69 | 93 ± 4 | 2220 ± 818 | full agonists | 96 ± 16 | 1.93 ± 0.24 | 4.51 ± 2.35 | – | – | 105 ± 4 | 202 ± 3 | – | – | – | ca. 4 times | –
CO[C@@]12CC[C@H](N[C@@H](CC(=O)O)C(=O)O)[C@@H]3Oc4c(O)ccc5c4[C@@]31CCN(C)[C@@H]2C5 [Compound 13a, (2S)-2-[(4,5α-Epoxy-3-hydroxy-14β-methoxy-17-methylmorphinan-6α-yl)-amino]butanedioic Acid Dihydrochloride] | 1.36 ± 0.05 | – | 10.1 ± 3.8 | 97 ± 3 | 2990 ± 659 | – | 83 ± 17 | 14.6 ± 3.6 | 4.1 ± 1.29 | – | – | 90 ± 7 | 50.2 ± 9.2 | 0.0382 | – | – | – | 1/11/37
CO[C@@]12CC[C@H](N[C@@H](Cc3c[nH]c4ccccc34)C(=O)O)[C@@H]3Oc4c(O)ccc5c4[C@@]31CCN(C)[C@@H]2C5 [Compound 10a, (2S)-2-[(4,5α-Epoxy-3-hydroxy-14β-methoxy-17-methylmorphinan-6α-yl)-amino]-3-(1H-indolo-3yl)propionic Acid Dihydrochloride] | 0.36 ± 0.01 | – | 2.52 ± 1.41 | 102 ± 8 | 70.1 ± 20.5 | – | 61 ± 8 | 1.02 ± 0.12 | 0.51 ± 0.34 | – | – | 93 ± 9 | 25.1 ± 9.3 | – | – | – | – | –
CO[C@@]12CC[C@@H](N[C@@H](CC(=O)O)C(=O)O)[C@@H]3Oc4c(O)ccc5c4[C@@]31CCN(C)[C@@H]2C5 [Compound 13b, (2S)-2-[(4,5α-Epoxy-3-hydroxy-14β-methoxy-17-methylmorphinan-6β-yl)amino]butanedioic Acid Dihydrochloride] | 3.42 ± 0.05 | – | 11.8 ± 2.2 | 101 ± 1 | 753 ± 358 | – | 49 ± 7 | 22.6 ± 2.2 | 1.45 ± 0.01 | partial agonists | – | ~70 | 351 ± 43 | – | – | – | – | –
